Source: US12410171B2, “Tropomyosin receptor kinase (TRK) degradation compounds and methods of use” (Cullgen (Shanghai), Inc., priority 2020, dated 2025)

target: T1, TPM3-TRKA fusion protein (Homo sapiens, UniProt P04629); test: TPM3-TRKA fusion protein levels in KM12 cells (Western blot); format: cell-based; settings: 16 h; TPM3-TRKA degradation in KM12 cells at 10 nM compound, category of percentage degradation; read-out: Degradation (at 10 nM)
T1 construct: The resulted chimeric proteins always retain the kinase domain of TRK proteins; TPM3 (fusion partner, N-terminal part of tropomyosin alpha-3, P06753); endogenous in cells; host or cells: KM12 colon cancer cells; the other entry of the earlier key: TPM3 (P06753, Tropomyosin alpha-3 chain)
T1 sequence (P04629 with tags, fused parts or gaps): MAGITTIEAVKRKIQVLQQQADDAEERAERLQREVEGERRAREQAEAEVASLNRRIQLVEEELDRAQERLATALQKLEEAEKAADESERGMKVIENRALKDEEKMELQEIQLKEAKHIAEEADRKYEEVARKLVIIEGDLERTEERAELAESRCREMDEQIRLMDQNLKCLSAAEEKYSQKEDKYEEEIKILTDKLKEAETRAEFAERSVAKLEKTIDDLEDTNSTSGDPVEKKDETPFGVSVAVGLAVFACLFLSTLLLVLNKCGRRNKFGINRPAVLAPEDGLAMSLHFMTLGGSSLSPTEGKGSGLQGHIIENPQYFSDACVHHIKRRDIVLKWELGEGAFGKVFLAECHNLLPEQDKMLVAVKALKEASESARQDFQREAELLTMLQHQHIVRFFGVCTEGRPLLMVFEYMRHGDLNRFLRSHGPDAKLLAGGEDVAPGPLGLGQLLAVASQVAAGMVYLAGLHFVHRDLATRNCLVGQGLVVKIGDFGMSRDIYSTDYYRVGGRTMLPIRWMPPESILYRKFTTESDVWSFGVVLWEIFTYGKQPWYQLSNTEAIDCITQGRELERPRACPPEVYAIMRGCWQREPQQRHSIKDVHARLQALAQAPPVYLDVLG
How it was run: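 KM12 colon cancer cells were treated with DMSO or compounds at 0.1–100 nM, 0.4–30 nM or other stated concentrations for 4, 8–16 or 16 h. RIPA lysates were BCA-normalized and resolved by SDS-PAGE. TPM3-TRKA was detected by chemiluminescent Western blot, with bands quantified by densitometry.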

How did the percent degradation of TPM3-TRKA protein at 0.01 µM turn out when `Cc1ncsc1-c1ccc(CNC(=O)[C@@H]2C[C@@H](O)CN2C(=O)[C@@H](NC(=O)CCCCC(=O)N2CCN(c3ccc(C(=O)Nc4n[nH]c5ccc(Cc6cc(F)cc(F)c6)cc45)c(NC4CCOCC4)c3)CC2)C(C)(C)C)cc1` [CPD-044] was run?
The percent degradation of TPM3-TRKA protein at 0.01 µM was 50 to 80%.

For `O=C1CCC(N2C(=O)c3ccc(NCCCCCC(=O)N4CCN(c5cccc(-c6cnc7ccc(N8CCC[C@@H]8c8cccc(F)c8)nn67)n5)CC4)cc3C2=O)C(=O)N1` (stereo partly drawn) [TR-122, 2-(2,6-Dioxopiperidin-3-yl)-5-((6-(4-(6-(6-((R)-2-(3-fluorophenyl)pyrrolidin-1-yl)imidazo[1,2-b]pyridazin-3-yl)pyridin-2-yl)piperazin-1-yl)-6-oxohexyl)amino) isoindoline-1,3-dione], which percent degradation of TPM3-TRKA protein at 0.01 µM is on record?
The percent degradation of TPM3-TRKA protein at 0.01 µM was greater than 80%.

Which percent degradation of TPM3-TRKA protein at 0.01 µM does the source give for `Cc1ncsc1-c1ccc(CNC(=O)[C@@H]2C[C@@H](O)CN2C(=O)[C@@H](NC(=O)CCCCCCC(=O)N2CCN(c3ccc(C(=O)Nc4n[nH]c5ccc(Cc6cc(F)cc(F)c6)cc45)c(NC4CCOCC4)c3)CC2)C(C)(C)C)cc1` [CPD-033, (2S,4R)-1-((S)-2-(8-(4-(4-((5-(3,5-Difluorobenzyl)-1H-indazol-3-yl)carbamoyl)-3-((tetrahydro-2H-pyran-4-yl)amino)phenyl)piperazin-1-yl)-8-oxooctanamido)-3,3-dimethylbutanoyl)-4-hydroxy-N-(4-(4-methylthiazol-5-yl)benzyl)pyrrolidine-2-carboxamide] here?
The percent degradation of TPM3-TRKA protein at 0.01 µM was greater than 80%.

`Cc1ncsc1-c1ccc(CNC(=O)[C@@H]2C[C@@H](O)CN2C(=O)[C@@H](NC(=O)CCCCCCCCC(=O)N2CCN(c3ccc(C(=O)Nc4n[nH]c5ccc(Cc6cc(F)cc(F)c6)cc45)c(NC4CCOCC4)c3)CC2)C(C)(C)C)cc1` [CPD-034, (28,4R)-1-((S)-2-(10-(4-(4-((5-(3,5-Difluorobenzyl)-1H-indazol-3-yl)carbamoyl)-3-((tetrahydro-2H-pyran-4-yl)amino)phenyl)piperazin-1-yl)-10-oxodecanamido)-3,3-dimethylbutanoyl)-4-hydroxy-N-(4-(4-methylthiazol-5-yl)benzyl)pyrrolidine-2-carboxamide] was tested. Which percent degradation of TPM3-TRKA protein at 0.01 µM did it give?
The percent degradation of TPM3-TRKA protein at 0.01 µM was less than 50%.

How did the percent degradation of TPM3-TRKA protein at 0.01 µM turn out when `O=C1CCC(N2C(=O)c3ccc(NCCOCCOCCOCCOCCC(=O)N4CCN(c5cccc(-c6cnc7ccc(N8CCC[C@@H]8c8cccc(F)c8)nn67)n5)CC4)cc3C2=O)C(=O)N1` (stereo partly drawn) [TR-120, 2-(2,6-Dioxopiperidin-3-yl)-5-((15-(4-(6-(6-((R)-2-(3-fluorophenyl)pyrrolidin-1-yl)imidazo[1,2-6]pyridazin-3-yl)pyridin-2-yl)piperazin-1-yl)-15-oxo-3,6,9,12-tetraoxapentadecyl)amino) isoindoline-1,3-dione] was run?
The percent degradation of TPM3-TRKA protein at 0.01 µM was greater than 80%.

For `O=C1CCC(N2C(=O)c3ccc(NCCCCCCC(=O)N4CCN(c5cccc(-c6cnc7ccc(N8CCC[C@@H]8c8cccc(F)c8)nn67)n5)CC4)cc3C2=O)C(=O)N1` (stereo partly drawn) [TR-117, 2-(2,6-Dioxopiperidin-3-yl)-5-((7-(4-(6-(6-((R)-2-(3-fluorophenyl)pyrrolidin-1-yl)imidazo[1,2-b]pyridazin-3-yl)pyridin-2-yl)piperazin-1-yl)-7-oxoheptyl)amino) isoindoline-1,3-dione], which percent degradation of TPM3-TRKA protein at 0.01 µM is on record?
Its percent degradation of TPM3-TRKA protein at 0.01 µM is greater than 80%.

For `O=C1CCC(N2C(=O)c3cccc(NCCCCC(=O)N4CCN(c5ccc(C(=O)Nc6n[nH]c7ccc(Cc8cc(F)cc(F)c8)cc67)c(NC6CCOCC6)c5)CC4)c3C2=O)C(=O)N1` (stereo not drawn) [CPD-050, N-(5-(3,5-Difluorobenzyl)-1H-indazol-3-yl)-4-(4-(5-((2-(2,6-dioxopiperidin-3-yl)-1,3-dioxoisoindolin-4-yl)amino)pentanoyl)piperazin-1-yl)-2-((tetrahydro-2H-pyran-4-yl)amino)benzamide], which percent degradation of TPM3-TRKA protein at 0.01 µM is on record?
Its percent degradation of TPM3-TRKA protein at 0.01 µM is greater than 80%.

With `O=C1CCC(N2Cc3ccc(NCC(=O)N4CCN(c5cccc(-c6cnc7ccc(N8CCC[C@@H]8c8cccc(F)c8)nn67)n5)CC4)cc3C2=O)C(=O)N1` (stereo partly drawn) [TR-189, 3-(6-((2-(4-(6-(6-((R)-2-(3-fluorophenyl)pyrrolidin-1-yl)imidazo[1,2-b]pyridazin-3-yl)pyridin-2-yl)piperazin-1-yl)-2-oxoethyl)amino)-1-oxoisoindolin-2-yl)piperidine-2,6-dione] as the compound, how does the percent degradation of TPM3-TRKA protein at 0.01 µM read?
The percent degradation of TPM3-TRKA protein at 0.01 µM was greater than 80%.

For `O=C1CCC(N2C(=O)c3ccc(N4CCC(CN5CCN(c6cccc(-c7cnc8ccc(N9CCC[C@@H]9c9cccc(F)c9)nn78)n6)CC5)CC4)cc3C2=O)C(=O)N1` (stereo partly drawn) [TR-226, 2-(2,6-dioxopiperidin-3-yl)-5-(4-((4-(6-(6-((R)-2-(3-fluorophenyl)pyrrolidin-1-yl)imidazo[1,2-b]pyridazin-3-yl)pyridin-2-yl)piperazin-1-yl)methyl)piperidin-1-yl)isoindoline-1,3-dione], which percent degradation of TPM3-TRKA protein at 0.01 µM is on record?
Its percent degradation of TPM3-TRKA protein at 0.01 µM is greater than 80%.

Which percent degradation of TPM3-TRKA protein at 0.01 µM does the source give for `O=C1CCC(N2Cc3cc(NCCN4CCN(c5cccc(-c6cnc7ccc(N8CCC[C@@H]8c8cccc(F)c8)nn67)n5)CC4)ccc3C2=O)C(=O)N1` (stereo partly drawn) [TR-191, 3-(5-((2-(4-(6-(6-((R)-2-(3-fluorophenyl)pyrrolidin-1-yl)imidazo[1,2-b]pyridazin-3-yl)pyridin-2-yl)piperazin-1-yl)ethyl)amino)-1-oxoisoindolin-2-yl)piperidine-2,6-dione] here?
Its percent degradation of TPM3-TRKA protein at 0.01 µM is greater than 80%.

How did the percent degradation of TPM3-TRKA protein at 0.01 µM turn out when `O=C1CCC(N2C(=O)c3cccc(NCCOCCOCCOCCOCCC(=O)N4CCN(c5ccc(C(=O)Nc6n[nH]c7ccc(Cc8cc(F)cc(F)c8)cc67)c(NC6CCOCC6)c5)CC4)c3C2=O)C(=O)N1` (stereo not drawn) [CPD-031, N-(5-(3,5-Difluorobenzyl)-1H-indazol-3-yl)-4-(4-(1-((2-(2,6-dioxopiperidin-3-yl)-1,3-dioxoisoindolin-4-yl)amino)-3,6,9,12-tetraoxapentadecan-15-oyl)piperazin-1˜yl)-2-((tetrahydro-2H-pyran-4-yl)amino)benzamide] was run?
The percent degradation of TPM3-TRKA protein at 0.01 µM was greater than 80%.

For `O=C(CN1CCN(c2ccc(C(=O)Nc3n[nH]c4ccc(Cc5cc(F)cc(F)c5)cc34)c(NC3CCOCC3)c2)CC1)NCCOCCNc1cccc2c1C(=O)N(C1CCC(=O)NC1=O)C2=O` (stereo not drawn) [TR-151, N-(5-(3,5-Difluorobenzyl)-1H-indazol-3-yl)-4-(4-(2-((2-(2-((2-(2,6-dioxopiperidin-3-yl)-1,3-dioxoisoindolin-4-yl)amino)ethoxy)ethyl)amino)-2-oxoethyl)piperazin-1-yl)-2-((tetrahydro-2H-pyran-4-yl)amino)benzamide], which percent degradation of TPM3-TRKA protein at 0.01 µM is on record?
The percent degradation of TPM3-TRKA protein at 0.01 µM was greater than 80%.

Which percent degradation of TPM3-TRKA protein at 0.01 µM does the source give for `Cn1c(=O)n(C2CCC(=O)NC2=O)c2ccc(NCCN3CCN(c4cccc(-c5cnc6ccc(N7CCC[C@@H]7c7cccc(F)c7)nn56)n4)CC3)cc21` (stereo partly drawn) [TR-220, 3-(5-((2-(4-(6-(6-((R)-2-(3-Fluorophenyl)pyrrolidin-1-yl)imidazo[1,2-b]pyridazin-3-yl)pyridin-2-yl)piperazin-1-yl)ethyl)amino)-3-methyl-2-oxo-2,3-dihydro-1H-benzo[d]imidazol-1-yl)piperidine-2,6-dione] here?
Its percent degradation of TPM3-TRKA protein at 0.01 µM is greater than 80%.

With `O=C(CN1CCN(c2ccc(C(=O)Nc3n[nH]c4ccc(Cc5cc(F)cc(F)c5)cc34)c(NC3CCOCC3)c2)CC1)NCCCCCNc1ccc2c(c1)C(=O)N(C1CCC(=O)NC1=O)C2=O` (stereo not drawn) [TR-164, N-(5-(3,5-Difluorobenzyl)-1H-indazol-3-yl)-4-(4-(2-((5-((2-(2,6-dioxopiperidin-3-yl)-1,3-dioxoisoindolin-5-yl)amino)pentyl)amino)-2-oxoethyl)piperazin-1-yl)-2-((tetrahydro-2H-pyran-4-yl)amino)benzamide] as the compound, how does the percent degradation of TPM3-TRKA protein at 0.01 µM read?
Its percent degradation of TPM3-TRKA protein at 0.01 µM is greater than 80%.

How did the percent degradation of TPM3-TRKA protein at 0.01 µM turn out when `O=C(CN1CCN(c2ccc(C(=O)Nc3n[nH]c4ccc(Cc5cc(F)cc(F)c5)cc34)c(NC3CCOCC3)c2)CC1)NCCNc1cccc2c1C(=O)N(C1CCC(=O)NC1=O)C2=O` (stereo not drawn) [CPD-062, N-(5-(3,5-Difluorobenzyl)-1H-indazol-3-yl)-4-(4-(2-((2-((2-(2,6-dioxopiperidin-3-yl)-1,3-dioxoisoindolin-4-yl)amino)ethyl)amino)-2-oxoethyl)piperazin-1-yl)-2-((tetrahydro-2H-pyran-4-yl)amino)benzamide] was run?
The percent degradation of TPM3-TRKA protein at 0.01 µM was greater than 80%.

For `O=C1CCC(N2C(=O)c3ccc(NCCCC(=O)N4CCN(c5cccc(-c6cnc7ccc(N8CCC[C@@H]8c8cccc(F)c8)nn67)n5)CC4)cc3C2=O)C(=O)N1` (stereo partly drawn) [TR-168, 2-(2,6-Dioxopiperidin-3-yl)-5-((4-(4-(6-(6-((R)-2-(3-fluorophenyl)pyrrolidin-1-yl)imidazo[1,2-b]pyridazin-3-yl)pyridin-2-yl)piperazin-1-yl)-4-oxobutyl)amino) isoindoline-1,3-dione], which percent degradation of TPM3-TRKA protein at 0.01 µM is on record?
Its percent degradation of TPM3-TRKA protein at 0.01 µM is greater than 80%.

For `Cc1ncsc1-c1ccc(CNC(=O)[C@@H]2C[C@@H](O)CN2C(=O)[C@@H](NC(=O)CCCCCC(=O)N2CCN(c3ccc(C(=O)Nc4n[nH]c5ccc(Cc6cc(F)cc(F)c6)cc45)c(NC4CCOCC4)c3)CC2)C(C)(C)C)cc1` [CPD-047, (28,4R)-1-((S)-2-(7-(4-(4-((5-(3,5-Difluorobenzyl)-1H-indazol-3-yl)carbamoyl)-3-((tetrahydro-2H-pyran-4-yl)amino)phenyl)piperazin-1-yl)-7-oxoheptanamido)-3,3-dimethylbutanoyl)-4-hydroxy-N-(4-(4-methylthiazol-5-yl)benzyl)pyrrolidine-2-carboxamide], which percent degradation of TPM3-TRKA protein at 0.01 µM is on record?
Its percent degradation of TPM3-TRKA protein at 0.01 µM is greater than 80%.

For `O=C(CN1CCN(c2cccc(-c3cnc4ccc(N5CCC[C@@H]5c5cccc(F)c5)nn34)n2)CC1)NCCCCCNc1ccc2c(c1)C(=O)N(C1CCC(=O)NC1=O)C2=O` (stereo partly drawn) [TR-131, N-(5-((2-(2,6-dioxopiperidin-3-yl)-1,3-dioxoisoindolin-5-yl)amino)pentyl)-2-(4-(6-(6-((R)-2-(3-fluorophenyl)pyrrolidin-1-yl)imidazo[1,2-b]pyridazin-3-yl)pyridin-2-yl)piperazin-1-yl)acetamide], which percent degradation of TPM3-TRKA protein at 0.01 µM is on record?
Its percent degradation of TPM3-TRKA protein at 0.01 µM is greater than 80%.
